Measured values from patent US20070275382A1, “Biomarkers for the Efficacy of Somatostatin Analogue Treatment” (priority 2003, published 2007).
*1 amine or outer side, *2 acyl side, *3 side chain or, on linkers, in order; H or OH if unused. Where a SMILES comes first, the peptide text is derived from it. Side-chain parts run from the residue outwards. [ ]: non-standard residue; d: D form. The star is where a group is joined. Ethylenediamine = C(CN[*:2])N[*:1]; Hyp = O=C(O)[CH]1C[CH](O)CN1; Phg = N[CH](C(=O)O)c1ccccc1; CO = O=C([*:1])[*:2]; Bn = c1ccc(C*)cc1

Columns and labels:
Brown fat = assay: Microarray gene expression profiling (HG-U95A), brown fat; assay type: in vivo, cynomolgus monkeys
Procedure: (§1) Origin of tissue and processing. Male and female cynomolgus monkeys received subcutaneously pasireotide (100 μg/animal/day) or the vehicle for 14 days. On day 15, all animals were sacrificed and tissues for RNA extraction were immediately snap-frozen and kept at −80° C. until processing.
(§2) RNA expression profiling was conducted by means of the HG-U95A gene expression probe array (Affymetrix; Santa Clara, Calif. USA), containing more than 12,600 probe sets interrogating primarily full-length human genes and also some control probe sets. The experiment was conducted according to the recommendations of the manufacturer. Briefly, total RNA was obtained by acid guanidinium thiocyanate-phenol-chloroform extraction (Trizol®, Invitrogen Life Technologies, San Diego, Calif. USA) from each frozen tissue section. The total RNA was then purified on an affinity resin (Rneasy®, Qiagen) and quantified. Double stranded cDNA was synthesized with a starting amount of approximately 5 μg full-length total RNA using the Superscript® Choice System (Invitrogen Life Technologies, Carlsbad, Calif. USA) in the presence of a T7-(dT)24 DNA oligonucleotide primer. Following synthesis, the cDNA was purified by phenol/chloroform/isoamyl alcohol extraction and ethanol precipitation. The purified cDNA was then transcribed in vitro using the BioArray® High Yield RNA Transcript Labeling Kit (ENZO, Farmingdale, N.Y. USA) in the presence of biotinylated ribonucleotides form biotin labelled cRNA. The labelled cRNA was then purified on an affinity resin (Rneasy®, Qiagen), quantified and fragmented. An amount of approximately 10 μg labelled cRNA was hybridized for 16 hours at 45° C. to an expression probe array. The array was then washed and stained twice with streptavidin-phycoerythrin (Molecular Probes,) using the GeneChip® Fluidics Workstation 400 (Affymetrix, Santa Clara, Calif. USA). The array was then scanned twice using a confocal laser scanner (GeneArray® Scanner, Agilent, Palo Alto, Calif. USA) resulting in one scanned image. This resulting “.dat-file” was processed using the MAS4 program (Affymetrix) into a “.cel-file”. The “.cel file” was captured and loaded into the Affymetrix GeneChip® Laboratory Information Management System (LIMS). The LIMS database is connected to a UNIX Sun Solaris server through a network filing system that allows for the average intensities for all probes cells (CEL file) to be downloaded into an Oracle database (NPGN). Raw data was converted to expression levels using a “target intensity” of 150. The data were evaluated for quality control and loaded in the GeneSpring® software 4.2.4 (Silicon Genetics, Calif. USA) for analysis.
(§3) On the human Affymetrix HGU95Av2 chip, probe sets for individual genes contain 20 oligonucleotide pairs, each composed of a “perfect match” 25-mer and a “mismatch” 25-mer differing from the “perfect” match oligonucleotide at a single base. After probe labelling, hybridization, and laser scanning, the expression level was estimated by averaging the differences in signal intensity measured by oligonucleotide pairs of a given probe (AvgDiff value). The fold changes and directions were calculated for selected genes, from the differences of the AvgDiff values between controls and treated.
(§4) To identify genes that were impacted by pasireotide, the dataset was initially filtered to exclude in a first wave of analysis, genes whose values were systematically in the lower expression ranges where the experimental noise is high (at least 80 in a number of experiments corresponding to the smallest number of replicas of any experimental point). In a second round of selection a threshold p-value of 0.05 (based on a t-test) identified differences between treated and control based on a two component error model (Global Error Model) and, whenever possible, with a stepdown correction for multi-hypothesis testing (Benjamini and Hochberg false discovery rate). […]

Pancreas = assay: Microarray gene expression profiling (HG-U95A), pancreas; assay type: in vivo, cynomolgus monkeys
Procedure: as §1, §2, §3, §4

[1] = ↑ vs control, 100 μg/animal/day s.c., 14 days
[2] = ↓ vs control, 100 μg/animal/day s.c., 14 days

NCCCCC1NC(=O)C(Cc2c[nH]c3ccccc23)NC(=O)C(c2ccccc2)NC(=O)C2CC(OC(=O)NCCN)CN2C(=O)C(Cc2ccccc2)NC(=O)C(Cc2ccc(OCc3ccccc3)cc2)NC1=O (stereo not drawn) [Pasireotide, cyclo[4-(NH2—C2H4—NH—CO—O)Pro-Phg-DTrp-Lys-Tyr(4-Bzl)-Phe]] (cyclo(F[Hyp]([CO-Ethylenediamine])[Phg]WKY(Bn)); configuration not given here)
IGF-1 expression level, AvgDiff (range) (Brown fat; 0.1 mg/animal/14day): 389 (315 to 449)
IGFBP 4 expression level, AvgDiff (range) (Brown fat; 0.1 mg/animal/14day): 763 (429 to 1058)
IRS 2 expression level, AvgDiff (range) (Brown fat; 0.1 mg/animal/14day): 146 (80 to 222)
SSTR3 expression level, AvgDiff (range) (Brown fat; 0.1 mg/animal/14day): 194 (87 to 248)
Adrenergic, β-3-, receptor transcript fold change (Brown fat; [1]): receptor ↑ x2.5
Apotosis-associated tyrosine kinase transcript fold change (Brown fat; [1]): tyrosine kinase ↑ x3.5
CD2 antigen (cytoplasmic tail)-binding protein 2 transcript fold change (Brown fat; [1]): binding protein 2 ↑ x2.5
CSF 3 receptor (granulocyte) transcript fold change (Brown fat; [1]): (granulocyte) ↑ x3
Ca++ channel, voltage dependent, α 1H subunit transcript fold change (Brown fat; [1]): ↑ x3
Cadherin 5, VE-cadherin (vascular epithelium) transcript fold change (Brown fat; [1]): epithelium) ↑ x3
Cyclin T2 transcript fold change (Brown fat; [1]): Cyclin T2 ↑ x2.5
Dopamine receptor D3 transcript fold change (Brown fat; [1]): ↑ x2.5
Dual specificity PP MKP-5 transcript fold change (Brown fat; [1]): MKP-5 ↑ x2.5
Endothelial differentiation, sphingolipid G-protein-coupled receptor, 5 transcript fold change (Brown fat; [1]): ↑ x2.5
FSHR transcript fold change (Brown fat; [1]): FSHR ↑ x2.5
Follistatin-like 3 glycoprotein transcript fold change (Brown fat; [1]): glycoprotein ↑ x3
G protein-activated inwardly rectifying K+ channel transcript fold change (Brown fat; [1]): channel ↑ x3.5
GLUR, metabotropic 1 transcript fold change (Brown fat; [1]): ↑ x2
Guanine nucleotide binding protein (G protein), β polypeptide 3 transcript fold change (Brown fat; [1]): ↑ x2.5
IFN induced transmembrane protein 1 transcript fold change (Brown fat; [1]): 1 ↑ x2.5
IL 3 (CSF, multiple) transcript fold change (Brown fat; [1]): ↑ x2
IL 5R, α transcript fold change (Brown fat; [1]): IL 5R, α↑ x2.5
IL 7R precursor transcript fold change (Brown fat; [1]): IL 7R precursor ↑ x2
IRS (insulin receptor substrate) 2 transcript fold change (Brown fat; [1]): substrate) 2 ↑ x2.5
Oxytocin, prepro-(neurophysin I) transcript fold change (Brown fat; [1]): (neurophysin I) ↑ x2.5
PI glycan, class L transcript fold change (Brown fat; [1]): x3.5
PLC β 4 transcript fold change (Brown fat; [1]): PLC β 4 ↑ x2
PP 5, catalytic subunit transcript fold change (Brown fat; [1]): ↑ x2.5
T3 receptor transcript fold change (Brown fat; [1]): T3 receptor ↑ x2
TGF β 3 transcript fold change (Brown fat; [1]): TGF β 3 ↑ x2.5
TGF β-activated kinase-binding protein 1 transcript fold change (Brown fat; [1]): ↑ x2.5
VGF nerve growth factor inducible transcript fold change (Brown fat; [1]): factor inducible ↑ x2
Actin related protein 2/3 complex, subunit 1A (41 kD) transcript fold change (Brown fat; [2]): (41 kD) ↓ x2.5
CSF 1 (macrophage) transcript fold change (Brown fat; [2]): ↓ x2
Cadherin 13, H-cadherin (heart) transcript fold change (Brown fat; [2]): cadherin (heart) ↓ x2
Cadherin F1B1 transcript fold change (Brown fat; [2]): Cadherin F1B1 ↓ x4
Calcium/calmodulin-dependent protein kinase I transcript fold change (Brown fat; [2]): kinase I ↓ x3.5
Capping protein (actin filament), gelsolin-like transcript fold change (Brown fat; [2]): ↓ x2.5
Coagulation factor XIIIAI subunit precursor transcript fold change (Brown fat; [2]): ↓ x5
EGF receptor pathway substrate 15 transcript fold change (Brown fat; [2]): substrate 15 ↓ x2
Endothelial cell GF 1 (platelet derived) transcript fold change (Brown fat; [2]): (platelet derived) ↓ x2
Extra spindle poles, S. cerevisiae, homologue of transcript fold change (Brown fat; [2]): of ↓ x2.5
Fms-related tyrosine kinase 1 (VEGF/vascular permeability factor receptor) transcript fold change (Brown fat; [2]): factor receptor) ↓ x4.5
G1 to S phase transition transcript fold change (Brown fat; [2]): transition ↓ x1.5
G protein-coupled receptor 1 transcript fold change (Brown fat; [2]): receptor 1 ↓ x2.5
G α inhibiting activity polypeptide 3 interacting protein transcript fold change (Brown fat; [2]): protein ↓ x5
IFNγ-inducible protein 30 (IP30) transcript fold change (Brown fat; [2]): 30 (IP30) ↓ x3.5
IGF-1 transcript fold change (Brown fat; [2]): IGF-1 ↓ x1.5
IGF-binding protein 4 transcript fold change (Brown fat; [2]): ↓ x2
Neuroblastoma apoptosis-related RNA binding protein transcript fold change (Brown fat; [2]): binding protein ↓ x3
Neuroblastoma transcript fold change (Brown fat; [2]): Neuroblastoma ↓ x2.5
PCNA transcript fold change (Brown fat; [2]): PCNA ↓ x2.5
PI glycan, class F transcript fold change (Brown fat; [2]): PI glycan, class F ↓ x2
PI-3-kinase. regulatory subunit, polypeptide 2 (p85 β) transcript fold change (Brown fat; [2]): (p85 β) ↓ x3.5
PP 2, regulatory subunit B (B56), γ isoform transcript fold change (Brown fat; [2]): isoform ↓ x1.5
Pentaxin-related gene, rapidly induced by IL-1 transcript fold change (Brown fat; [2]): ↓ x7.5
THR interactor 10 transcript fold change (Brown fat; [2]): ↓ x3
THR interactor 12 transcript fold change (Brown fat; [2]): ↓ x1.5
TNF type 1 receptor associated protein transcript fold change (Brown fat; [2]): associated protein ↓ x2
IGF-1 expression level, AvgDiff (range) (Pancreas; 0.1 mg/animal/14day): 89 (20 to 298)
SSTR2 expression level, AvgDiff (range) (Pancreas; 0.1 mg/animal/14day): 156 (120 to 210)
Cdki 1C transcript fold change (Pancreas; [1]): Cdki 1C ↑ x2
Chymotrypsin-like transcript fold change (Pancreas; [1]): ↑ x3.5
Cyclin D1 transcript fold change (Pancreas; [1]): Cyclin D1 ↑ x2
GLUR precursor, flip isoform transcript fold change (Pancreas; [1]): flip isoform ↑ x3
IFN regulatory factor 3 transcript fold change (Pancreas; [1]): factor 3 ↑ x5
IGF-1 transcript fold change (Pancreas; [1]): IGF-1 ↑ x4.5
IP-1-phosphatase transcript fold change (Pancreas; [1]): ↑ x2.5
Integrin α 2b precursor transcript fold change (Pancreas; [1]): precursor ↑ x1.5
Na+ channel, voltage-gated, type 1, β polypeptide transcript fold change (Pancreas; [1]): ↑ x2
PDGFR α transcript fold change (Pancreas; [1]): PDGFR α ↑ x2.5
PDGFR, α polypeptide transcript fold change (Pancreas; [1]): ↑ x1.5
PI-4-kinase, catalytic, α polypeptide transcript fold change (Pancreas; [1]): α polypeptide ↑ x1.5
PL A2, group IVC (cytosolic, calcium-independent) transcript fold change (Pancreas; [1]): independent) ↑ x1.5
Prostacyclin synthase transcript fold change (Pancreas; [1]): synthase ↑ x2
THR interactor 10 transcript fold change (Pancreas; [1]): ↑ x2.5
Thrombospondin 2 transcript fold change (Pancreas; [1]): ↑ x3.5
BCL2/adenovirus E1B 19 kD-intracting protein 1, isoform BNIP1-a transcript fold change (Pancreas; [2]): BNIP1-a ↓ x1.5
CRHR 1 transcript fold change (Pancreas; [2]): CRHR 1 ↓ x2
Ca++ channel, voltage dependent, α 1F subunit transcript fold change (Pancreas; [2]): ↓ x4.5
Cyclin T2 transcript fold change (Pancreas; [2]): Cyclin T2 ↓ x2
G-CSF protein transcript fold change (Pancreas; [2]): ↓ x2
Gastrin-releasing peptide receptor transcript fold change (Pancreas; [2]): ↓ x5
IL 1 receptor antagonist transcript fold change (Pancreas; [2]): antagonist↓ x2
K+ voltage-gated channel, KQT-like subfamily, member3 transcript fold change (Pancreas; [2]): ↓ x2.5
Neuro-blastoma apoptosis-related RNA binding protein transcript fold change (Pancreas; [2]): protein ↓ x3
Phosphotyrosine independent ligand p62B for the Lck SH2 domain B-cell isoform transcript fold change (Pancreas; [2]): isoform ↓ x2
Smad 3 transcript fold change (Pancreas; [2]): Smad 3 ↓ x1.5
THR binding protein transcript fold change (Pancreas; [2]): protein ↓ x2
